Key:
[1] = molecular target: T1, HLA class I molecule A*0201 (Homo sapiens, UniProt P04439, D140Y/D185E/D98H/E176V/E277Q/G131W/G231S/I119V/I121R/I166T/I218V/L300P/L318F/N151K/N90K/P208A/P217A/Q86G/Q94H/R138H/R169H/T345S); type: binding; conditions: REVEAL assay, assembly of peptide-HLA complex by ELISA with conformation-dependent anti-HLA antibody, relative to positive control peptide for that allele, comparable within an allele only
T1 construct: purchased ProImmune Ltd., Oxford, UK

[2] = molecular target: T2, HLA class I molecule A*2402 (Homo sapiens, UniProt P04439, D101N/D140Y/D185E/E176V/E190D/F33S/G103R/G107R/I119L/I121M/I306V/K335N/L105A/L180Q/L300P/N151K/N90K/Q86E/Q94H/R106L/R138H/R89G/T104I/T345S/V100E/W191G/Y123F); type: binding; conditions: REVEAL assay, assembly of peptide-HLA complex by ELISA with conformation-dependent anti-HLA antibody, relative to positive control peptide for that allele, comparable within an allele only
T2 construct: purchased ProImmune Ltd., Oxford, UK

[3] = molecular target: T3, HLA class I molecule B*0702 (Homo sapiens, UniProt P01889); experiment: REVEAL HLA-peptide binding assay, B*0702; parameters: concentration or dose not given beside the values; conditions: assembly of peptide-HLA complex by ELISA with conformation-dependent anti-HLA antibody, relative to positive control peptide for that allele, comparable within an allele only
T3 construct: purchased ProImmune Ltd., Oxford, UK
Protocol: (§1) The REVEAL HLA-peptide binding assay (ProImmune Ltd., Oxford, UK) was used to quantify peptide-HLA binding. For each allele-peptide combination that was tested, assembly of peptide-HLA complexes was quantified by ELISA with a conformation-dependent anti-HLA antibody. Samples of assembling peptide-HLA complexes were taken at a defined time point and snap-frozen in liquid nitrogen prior to analysis. The assembly for each peptide-HLA complex was then compared against a positive control peptide for that allele as the percentage of assembled peptide relative to that control. We selected four HLA class I alleles and 50 HTLV-1 peptides for each allele. The allele choice was based on allele frequency in the Kagoshima database and included 2 A alleles and 2 B alleles as well as alleles for which we knew that the epitope prediction tended to be poor. The 50 HTLV-1 nonamer peptides for each allele were selected to represent a range of predicted binding affinities, from weak to strong binding peptides. They originated from 4 HTLV-1 reference strain proteins: Tax, HBZ, Gag and Polymerase.
(§2) Note the binding score is with respect to a reference good binding peptide for each allele and therefore scores can be compared within an allele but not between alleles.

[4] = molecular target: HLA class I molecule B*3501 (Homo sapiens, UniProt P01889, A329T/A93T/A95T/C349S/D201E/D98Y/E176V/E187L/E204Q/E69T/I218V/K202T/L119I/Q94N/R155S/R180L/S121R/S35A/S48A/T118I/V127L/V306I/V36M/Y140S/Y91F); experiment: REVEAL HLA-peptide binding assay, B*3501; conditions: assembly of peptide-HLA complex by ELISA with conformation-dependent anti-HLA antibody, relative to positive control peptide for that allele, comparable within an allele only
Protocol: as §1, §2

Sequence	Score (experimentally measured binding affinity, % binding compared to control peptide) [2] [%]	Score (experimentally measured binding affinity, % binding compared to control peptide) [3] [%]	other results
STLTTPGLI [HTLV-1 nonamer peptide]	0	–	Score (experimentally measured binding affinity, % binding compared to control peptide) [1]: 0.84%
RDRQRRAEE [HTLV-1 nonamer peptide]	–	1.54	–
LVLQSSSFI [HTLV-1 nonamer peptide]	–	1.65	Score (experimentally measured binding affinity, % binding compared to control peptide) [1]: 41.33%
KARRRRRAE [HTLV-1 nonamer peptide]	–	0	–
RPAPPPPSS [HTLV-1 nonamer peptide]	–	93.08	–
SARLHRHAL [HTLV-1 nonamer peptide]	–	236.66	–
RAEKKAADV [HTLV-1 nonamer peptide]	–	2.78	–
LEAERRKLL [HTLV-1 nonamer peptide]	–	1.08	–
PPNHRPWQM [HTLV-1 nonamer peptide]	–	103.11	–
AASGLFRCL [HTLV-1 nonamer peptide]	–	107.28	Score (experimentally measured binding affinity, % binding compared to control peptide) [4]: 7.33%
LSPPITWPL [HTLV-1 nonamer peptide]	4.52	–	Score (experimentally measured binding affinity, % binding compared to control peptide) [1]: 34.53%; Score (experimentally measured binding affinity, % binding compared to control peptide) [4]: 41.83%
VPIRSRWAL [HTLV-1 nonamer peptide]	–	125.64	–
RGRLRRGPP [HTLV-1 nonamer peptide]	–	1.21	–
QPRPPPGPC [HTLV-1 nonamer peptide]	–	138.82	–
HPGQLGAFL [HTLV-1 nonamer peptide]	–	60.82	Score (experimentally measured binding affinity, % binding compared to control peptide) [4]: 34.24%
GYPGRVNEI [HTLV-1 nonamer peptide]	82.68	–	–
VPYKRIEEL [HTLV-1 nonamer peptide]	–	133.31	–
RPPRGLAAH [HTLV-1 nonamer peptide]	–	143.59	Score (experimentally measured binding affinity, % binding compared to control peptide) [4]: 34.86%
PYHAFVERL [HTLV-1 nonamer peptide]	113.04	–	–
SWASILQGL [HTLV-1 nonamer peptide]	123.67	–	–
LWLAAFAAL [HTLV-1 nonamer peptide]	30.63	–	–
IFSRSASPI [HTLV-1 nonamer peptide]	62.41	–	–
LPFHSTLTT [HTLV-1 nonamer peptide]	–	97.77	Score (experimentally measured binding affinity, % binding compared to control peptide) [4]: 102.24%
PYNPTSSGL [HTLV-1 nonamer peptide]	104.86	–	–
IWQGDITHF [HTLV-1 nonamer peptide]	64.83	–	–
EYQQLWLAA [HTLV-1 nonamer peptide]	2.7	–	–

Sequence	Score (experimentally measured binding affinity, % binding compared to control peptide) [2] [%]	Score (experimentally measured binding affinity, % binding compared to control peptide) [3] [%]	other results
NFLQAAYRL [HTLV-1 nonamer peptide]	113.8	–	Score (experimentally measured binding affinity, % binding compared to control peptide) [4]: 3.16%
ICPINYSLL [HTLV-1 nonamer peptide]	69.19	–	–
YWQGRLEAM [HTLV-1 nonamer peptide]	40.32	–	Score (experimentally measured binding affinity, % binding compared to control peptide) [4]: 7.1%
TPNIPPSFL [HTLV-1 nonamer peptide]	–	138.52	–
LPGLNSRQW [HTLV-1 nonamer peptide]	–	6.78	–
EKAVLDGLL [HTLV-1 nonamer peptide]	0	–	–
KISLTTGAL [HTLV-1 nonamer peptide]	–	71.26	Score (experimentally measured binding affinity, % binding compared to control peptide) [1]: 3.54%
KQIAEYLKR [HTLV-1 nonamer peptide]	3.56	–	–
QYLCSSLVA [HTLV-1 nonamer peptide]	4.85	–	–
RRRAEKKAA [HTLV-1 nonamer peptide]	–	0	–
KYTLQSYGL [HTLV-1 nonamer peptide]	104.78	–	–
TPKDKTKVL [HTLV-1 nonamer peptide from Gag]	–	113.7	–
LPVMHPHGA [HTLV-1 nonamer peptide]	–	9.38	–
WQMKDLQAI [HTLV-1 nonamer peptide]	0	–	Score (experimentally measured binding affinity, % binding compared to control peptide) [1]: 44.68%
TWPLLPHVI [HTLV-1 nonamer peptide]	118.19	–	–
DPISRLNAL [HTLV-1 nonamer peptide]	–	115.84	Score (experimentally measured binding affinity, % binding compared to control peptide) [4]: 67.38%
IALETPARI [HTLV-1 nonamer peptide]	9.68	–	Score (experimentally measured binding affinity, % binding compared to control peptide) [1]: 17.01%
AWQNGLLPF [HTLV-1 nonamer peptide]	92.6	–	–
YPGRVNEIL [HTLV-1 nonamer peptide]	–	158.86	Score (experimentally measured binding affinity, % binding compared to control peptide) [4]: 109.69%
TTPNIPPSF [HTLV-1 nonamer peptide]	0.43	–	–
FPGFGQSLL [HTLV-1 nonamer peptide]	–	102.99	Score (experimentally measured binding affinity, % binding compared to control peptide) [4]: 55.31%
LPVSCPEDL [HTLV-1 nonamer peptide]	–	6.44	Score (experimentally measured binding affinity, % binding compared to control peptide) [4]: 74.86%
MPVFTLSPV [HTLV-1 nonamer peptide from Pol]	–	142.96	Score (experimentally measured binding affinity, % binding compared to control peptide) [4]: 114.77%
APLPHTSQC [HTLV-1 nonamer peptide]	–	135.12	–
HQLKKFLKI [HTLV-1 nonamer peptide]	46.49	–	Score (experimentally measured binding affinity, % binding compared to control peptide) [1]: 0%
QPARAPVTL [HTLV-1 nonamer peptide]	–	135.43	Score (experimentally measured binding affinity, % binding compared to control peptide) [4]: 55.56%

— publication PMC2944806, “HLA Class I Binding of HBZ Determines Outcome in HTLV-1 Infection” (PLoS Pathogens, 2010)
